Experiments:
FEN1 = FEN1 (Homo sapiens, UniProt P39748); assay: Nuclease inhibition assay, FEN1 (5′ flap fluorescent DNA substrate, gel readout); type: biochemical; settings: 10 nM enzyme, 5 nM 5′ flap substrate, 15 min at 30° C.
From the text: (§1) In vitro assays were used for the determination of compound's IC50 values for inhibition of individual nucleases, i.e., MUS81/EME1, FEN1, EXO1, and MRE11. To generate IC50 values, concentration of compound was plotted against relative nuclease activity (in %). The dose-response curves were generated from inhibition data, from 5 point serial dilutions of inhibitory compounds, each in triplicate and fitted to a standard sigmoid curve. IC50 values were derived by standard nonlinear regression analysis.
All tested compounds were diluted in 100% DMSO (dimethylsulfoxide) to prepare working stocks with different concentrations. To keep the DMSO concentration constant in every reaction, always 0.5 μl of the compound stock was added to the reaction buffer. The reaction buffer differs depending on the enzyme tested. Also concentration of the compounds in the reaction depends on the particular enzyme, since the inhibitory effect of the compounds vary between the enzymes. Nevertheless, always doubling dilutions in the range 200-0.8 μM was used. The compound was added as the first component in the reaction buffer, followed by the enzyme addition. […]
For this experiment we prepared short fluorescently labeled oligonucleotide-based DNA substrates with specific structures reflecting the biochemical activities of tested individual nucleases (Table 1). […] For visualization, each substrate was labeled by fluorescent dye (fluorescein), which can be detected in the gel using appropriate imaging system (FLA-9000, Fuji) with filters for particular wavelengths (excitation: 485 nm, emission: 535 nm).
Nuclease assays were performed in reaction buffer specific for particular enzyme: MUS81/EME1 (50 mM Tris pH=7.5, 5 mM MgCl2, 1 mM DTT a 100 μg/ml BSA), MRE11 (30 mM Bis-Tris pH=7.0, 50 μg/ml BSA, 1 mM DTT a 250 μM MnCl2), EXO1 and FEN1 (50 mM Tris pH=7.5, 1 mM MgCl2, 1 mM DTT a 100 μg/ml BSA). […] Fluorescently labeled DNA was detected by FLA-9000 scanner (Fuji) and the result was evaluated using Multi-Gauge V3.2 software (Fuji). […]

MUS81/EME1 = molecular target: T1, MUS81/EME1 (Homo sapiens, UniProt Q96NY9); assay: Nuclease inhibition assay, MUS81/EME1 (3′ flap fluorescent DNA substrate, gel readout); type: biochemical; settings: 5 nM enzyme, 5 nM 3′ flap substrate, 15 min at 30° C.
T1 sequence (Q96NY9 1-551): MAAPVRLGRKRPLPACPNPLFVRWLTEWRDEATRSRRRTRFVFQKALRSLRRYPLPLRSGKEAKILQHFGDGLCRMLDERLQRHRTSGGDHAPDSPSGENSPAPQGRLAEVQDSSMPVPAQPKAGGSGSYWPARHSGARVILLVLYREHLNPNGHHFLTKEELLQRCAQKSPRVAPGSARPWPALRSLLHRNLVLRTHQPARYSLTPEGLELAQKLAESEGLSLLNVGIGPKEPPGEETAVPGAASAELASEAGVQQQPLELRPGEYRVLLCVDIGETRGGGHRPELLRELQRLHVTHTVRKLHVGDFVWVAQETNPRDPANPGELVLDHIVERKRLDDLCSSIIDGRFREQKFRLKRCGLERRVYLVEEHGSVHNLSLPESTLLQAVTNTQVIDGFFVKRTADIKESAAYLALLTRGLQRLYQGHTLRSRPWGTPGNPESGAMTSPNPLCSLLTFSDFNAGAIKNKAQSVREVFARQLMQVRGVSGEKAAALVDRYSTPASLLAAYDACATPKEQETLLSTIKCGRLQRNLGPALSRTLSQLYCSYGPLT
T1 sequence (Q96AY2 1-570 partner): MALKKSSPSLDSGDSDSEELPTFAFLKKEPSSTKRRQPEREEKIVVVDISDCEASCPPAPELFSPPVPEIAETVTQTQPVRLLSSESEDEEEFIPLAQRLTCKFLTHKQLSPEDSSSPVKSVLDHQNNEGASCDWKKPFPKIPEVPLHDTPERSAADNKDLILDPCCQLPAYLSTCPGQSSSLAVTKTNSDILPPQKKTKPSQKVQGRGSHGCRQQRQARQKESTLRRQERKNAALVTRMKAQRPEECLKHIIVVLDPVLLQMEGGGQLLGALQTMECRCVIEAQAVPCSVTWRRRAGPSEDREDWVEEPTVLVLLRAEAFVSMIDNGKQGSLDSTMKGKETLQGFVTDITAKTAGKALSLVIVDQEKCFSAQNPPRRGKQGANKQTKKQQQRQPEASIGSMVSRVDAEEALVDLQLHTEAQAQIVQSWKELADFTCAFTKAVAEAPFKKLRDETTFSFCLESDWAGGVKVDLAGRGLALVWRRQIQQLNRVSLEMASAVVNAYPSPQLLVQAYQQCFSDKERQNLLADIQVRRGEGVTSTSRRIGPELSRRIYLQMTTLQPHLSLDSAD
From the text: as §1
All tested compounds were diluted in 100% DMSO (dimethylsulfoxide) to prepare working stocks with different concentrations. To keep the DMSO concentration constant in every reaction, always 0.5 μl of the compound stock was added to the reaction buffer. The reaction buffer differs depending on the enzyme tested. Also concentration of the compounds in the reaction depends on the particular enzyme, since the inhibitory effect of the compounds vary between the enzymes. Nevertheless, always doubling dilutions in the range 200-0.8 μM was used. The compound was added as the first component in the reaction buffer, followed by the enzyme addition. Short (15 minutes) pre-incubation step followed before the reaction was initiated by addition of DNA substrate (5 nM).
As a negative control, DNA substrate specific for each particular enzyme without the addition of the enzyme and the compound was used. The positive control contained all components of the reaction, except the compound of interest. However, to compensate for solvent effects, DMSO (at a final concentration of 2.5%) was included in the reaction.
For this experiment we prepared short fluorescently labeled oligonucleotide-based DNA substrates with specific structures reflecting the biochemical activities of tested individual nucleases (Table 1). These substrates were prepared by annealing of synthetic oligonucleotides purchased from VBC Biotech. Composition of each substrate is indicated below the table; the corresponding oligonucleotides were combined in equimolar ratios. For visualization, each substrate was labeled by fluorescent dye (fluorescein), which can be detected in the gel using appropriate imaging system (FLA-9000, Fuji) with filters for particular wavelengths (excitation: 485 nm, emission: 535 nm).
Nuclease assays were performed in reaction buffer specific for particular enzyme: MUS81/EME1 (50 mM Tris pH=7.5, 5 mM MgCl2, 1 mM DTT a 100 μg/ml BSA), MRE11 (30 mM Bis-Tris pH=7.0, 50 μg/ml BSA, 1 mM DTT a 250 μM MnCl2), EXO1 and FEN1 (50 mM Tris pH=7.5, 1 mM MgCl2, 1 mM DTT a 100 μg/ml BSA). The individual reactions were prepared by mixing with highly purified enzyme (MUS81/EME1 (5 nM), MRE11 (5 nM), EXO1 (5 nM) or FEN1 (10 nM); purification protocols described below), and different concentration of inhibitor (mentioned above) in corresponding reaction buffer. The final volume of the reaction was 20 μl. After short pre-incubation (15 minutes at room temperature), the reaction was initiated by addition of 5 nM of corresponding fluorescently labeled DNA substrate (3′ flap for MUS81/EME1, 5′ flap for MRE11 and FEN1, 3′ OH for EXO1; see FIG. 1) and incubated for 15 minutes at 30° C. Next, the reaction was stopped and deproteinized by addition of 2 μl of stop buffer, containing 0.1% SDS and 500 μg/ml proteinase K, and incubated for additional 5 minutes at 30° C. Then the loading dye, containing glycerol (60% glycerol, 10 mM Tris pH=7.4, 60 mM EDTA a 0.1% Orange G), was added to each reaction ( 1/10 of the reaction volume), and the whole mixture was subjected to electrophoresis in 10% polyacrylamide native gel (110 V, 40 min, 1× TBE). Fluorescently labeled DNA was detected by FLA-9000 scanner (Fuji) and the result was evaluated using Multi-Gauge V3.2 software (Fuji).
The Mus81/Eme1 expression construct was a kind gift from Dr. Steve West (Cancer Research UK). Briefly, the nuclease complex was purified as follows. […]

Sequence of FEN1 (P39748 whole entry, species assumed): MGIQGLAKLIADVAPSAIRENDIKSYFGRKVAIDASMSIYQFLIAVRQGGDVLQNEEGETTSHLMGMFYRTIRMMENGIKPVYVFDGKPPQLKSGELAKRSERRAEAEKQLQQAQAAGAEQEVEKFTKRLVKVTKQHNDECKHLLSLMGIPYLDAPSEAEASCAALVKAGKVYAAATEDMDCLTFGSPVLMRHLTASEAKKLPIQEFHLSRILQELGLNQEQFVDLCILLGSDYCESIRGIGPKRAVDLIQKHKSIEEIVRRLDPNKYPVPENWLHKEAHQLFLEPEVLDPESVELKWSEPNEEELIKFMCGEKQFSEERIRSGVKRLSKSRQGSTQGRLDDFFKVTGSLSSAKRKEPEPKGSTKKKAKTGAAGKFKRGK

Row | Structure (SMILES) | IC50 (FEN1) [µM] | IC50 (MUS81/EME1) [µM]
1 | Nc1c(-c2nc3ccccc3[nH]2)nnc2cc(-c3cccc4ccccc34)nn12 [Preparative Example 5K] | > 50 | < 10
2 | Nc1c(-c2nc3ccccc3[nH]2)nnc2cc(-c3ccccc3)nn12 [Preparative Example 5C] | > 50 | < 50
3 | CCc1nn2c(N)c(-c3nc4ccccc4[nH]3)nnc2c1-c1ccc(F)cc1 [Preparative Example 5A] | > 50 | < 10

— patent publication US9969741B2, “Pyrazolotriazines as inhibitors of nucleases” (MASARYKOVA UNIVERZITA, priority 2014, dated 2018)
